Source: patent publication US12377152B2, “Compounds for degrading alpha-synuclein aggregates and uses thereof” (APRINOIA THERAPEUTICS LIMITED, priority 2019, dated 2025)

Columns and labels:
α-synuclein [1] = biological target: T1, α-synuclein (Homo sapiens (Human), UniProt P37840); assay: PBB5 competition assay; assay type: binding; conditions: 2 μM α-synuclein, 0.26 μM PBB5, 37° C., 1 hour
Description: (§1) (A) Expression and purification of recombinant wild-type human α-synuclein: 0.5 mM IPTG was used to induce production of wild type human α-synuclein by bacteria transformed with a full-length α-synuclein expression plasmid. After shaking at 16° C. for 20 hours, cell pellet was resuspended in lysis buffer (10 mM Tris, 1 mM EGTA, 0.75 mM NaCl, 1 mM PMSF, pH 7.5) and lysed by sonication followed by centrifugation (6000 g, 30 min, 4° C.). The supernatant was then boiled at 95° C. for 15 min with manual agitation by every 5 minutes, followed by centrifugation (6000 g, 30 min, 4° C.). Supernatant was dialyzed with (10 mM Tris, 1 mM EGTA, 50 mM NaCl, pH 7.5) buffer and concentrated with concentrator. The collected sample was loaded onto a Superdex200 column, the flow-through fraction was then loaded onto a Q-HP column. Collected fractions with α-synuclein eluates were pooled, concentrated and stored at −80° C.
(§2) (B) Preparation of aggregated α-synuclein: 5 mg/mL of α-synuclein in PBS buffer (pH 7.4) was incubated in tube with at 37° C. with shaking (700 rpm) for 5-10 days.
(D) PBB5 competition assay: 2 μM of α-synuclein was incubated with 0.26 μM 2-(4-(2-(methylamino)pyridine-5-yl)-1,3-butadiene-1-yl)benzothiazole-6-ol (PBB5) and serially diluted compound (three-fold serial dilution, from 10 to 0.001 μM) in a 96-well plate at 37° C. for 1 hour. Fluorescence intensity (excitation/emission=530/690 nm) of PBB5 was read by microplate spectrometer. Percentage of competition was calculated using the following equation: (Max−well of compound alone)/(Max−Min)*100%, where Max=(α-synuclein+PBB5) signals−(buffer+PBB5) signals; and Min=(buffer+PBB5) signals−(buffer+PBB5) signals. The IC50 value of each compound was calculated with GraphPad Prism software using the “4 Parameter Logistic Model or Sigmoidal Dose-Response Model”: Y=Bottom+(Top−Bottom)/(1+(IC50/X)^HillSlope)

α-synuclein [2] = biological target: T1, α-synuclein; assay: In vitro fluorometric α-synuclein binding assay; conditions: 2 μM α-synuclein, 37° C., 1 hour, fluorescence
Description: as §1, §2
(C) In vitro fluorometric α-synuclein binding assays: 2 μM α-synuclein was incubated with serially diluted compound (three-fold serial dilutions, from 10 to 0.001 μM) in a 96-well plate at 37° C. for 1 hour. Fluorescence intensity was read by microplate spectrometer. Compound Kd values were calculated using the following equation: Y=Bmax*X/(Kd+X), where X is the concentration of compound; Y is the fluorescence signal of (compound+α-synuclein)−(compound+DMSO); and Bmax is the maximum signal.

α-synuclein aggregates = α-synuclein aggregates (Homo sapiens (Human), UniProt P37840); assay: ReNcell VM α-synuclein aggregation assay; assay type: cell-based; conditions: for DC50: ReNcell VM cells, read-out: Activity (DC50, concentration at which 50% of α-synuclein aggregates has been degraded)
Description: The ReNcell VM α-synuclein aggregation assay was conducted at Charles River Laboratories (CRL). ReNcell VM is an immortalized human neural progenitor cell line derived from the ventral mesencephalon region of the brain. ReNcell VM cells were selected as in vitro cellular model for the α-synuclein aggregation assay, based on their growth features, differentiation potential into terminally differentiated neurons and amenability to adenoviral transduction. Aggregated human wild type α-synuclein was overexpressed through adenoviral delivery. Aggregated α-synuclein was detected with the aggregate-selective anti-α-synuclein antibody MJFR14 using immunocytochemistry; total α-synuclein levels were detected with Syn205 (α/β-synuclein-specific antibody).
The ReNcell VM α-synuclein aggregation assay was applied for compound screening to identify compounds capable of degrading α-synuclein aggregates. […] Immunoreactivity toward aggregated (MJFR14) and total α-synuclein (Syn205) was quantified using high content-based segmentation of immunoactive areas in immunocytochemical images (performed with the IN Cell 2200 (GE Healthcare)), followed by quantification of immunofluorescent intensity (performed by CRL's developed algorithm using IN Cell Developer Toolbox software).
Percentage effect (PE): Inhibition in comparison to BLANK (0.1% DMSO).
PE=100−(signal of compound/average signal BLANK)×100
Compound-induced cytotoxicity (% remaining cells)
% remaining cells=(nuclei count of compound/average nuclei count of BLANK)×100

[3] = 24 hour treatment, differentiated ReNcell VM cells

Row | SMILES | IC50 (α-synuclein [1]) | Kd (α-synuclein [2]) | DC50 (α-synuclein aggregates) | further results
1 | CN(C)c1ccc(-c2ccc(-c3cn4cc(OCCOCCOc5ccc6c(c5)CN(C5CCC(=O)NC5=O)C6=O)ccc4n3)cc2)cn1 (centres unmarked) [Compound 177033] | 0.63 µM | 0.65 µM | > 10 µM | –
2 | O=C1CCC(N2Cc3cc(OCCCC(=O)Nc4ccc(-c5ccc(-c6cc7ccncc7[nH]6)cc5)cn4)ccc3C2=O)C(=O)N1 (centres unmarked) [Compound 166099] | 0.04 µM | 5.63 µM | > 10 µM | –
3 | CN(C)c1ccc(-c2ccc(-c3nc4c(OCCOCCOc5ccc6c(c5)CN(C5CCC(=O)NC5=O)C6=O)cccc4s3)cc2)cn1 (centres unmarked) [Compound 166330] | 2.6 µM | 0.59 µM | > 10 µM | –
4 | COc1ccc2nc(-c3ccc(-c4ccnc(NCCCCCOc5ccc6c(c5)CN(C5CCC(=O)NC5=O)C6=O)c4)cc3)cn2c1 (centres unmarked) [Compound 165802] | > 10 µM | 2.44 µM | > 10 µM | –
5 | O=C1CCC(N2Cc3cc(OCCOCCNc4cc(-c5ccc(-c6nc7ccc(F)cc7s6)c(C(F)(F)F)c5)ccn4)ccc3C2=O)C(=O)N1 (centres unmarked) [Compound 166965] | 10 µM | 0.22 µM | – | –
6 | CN(C)c1ccc(-c2ccc(-c3nc4ccc(OCCOCCOc5cccc6c5C(=O)N(C5CCC(=O)NC5=O)C6=O)cc4s3)cc2)cn1 (centres unmarked) [Compound 180944] | 0.61 µM | 0.43 µM | – | –
7 | CN(C)c1ccc(-c2ccc(-c3nc4ccc(NCCCOCCCOc5ccc6c(c5)CN(C5CCC(=O)NC5=O)C6=O)cc4s3)c(C(F)(F)F)c2)cn1 (centres unmarked) [Compound 123374] | – | – | > 10 µM | –
8 | CN(C)c1ccc2nc(-c3ccc(-c4ccc(NCCOCCOc5ccc6c(c5)CN(C5CCC(=O)NC5=O)C6=O)nc4)cc3C(F)(F)F)sc2c1 (centres unmarked) [Compound 177031] | – | – | > 10 µM | –
9 | CN(C)c1ccc(-c2ccc(-c3nc4ccc(NC(=O)CCOCCOCCOc5ccc6c(c5)CN(C5CCC(=O)NC5=O)C6=O)cc4s3)cc2)cn1 (centres unmarked) [Compound 170357] | – | – | 0.01 to 0.9 µM | inhibition of MJFR14 immunoreactivity (α-synuclein aggregates; [3]): concentration-dependent inhibition
10 | O=C1CCC(N2Cc3cc(OCCCCCNc4cc(-c5ccc(-c6nc7ccc(F)cc7s6)cc5)ccn4)ccc3C2=O)C(=O)N1 (centres unmarked) [Compound 165825] | > 10 µM | – | – | –
11 | CN(C)c1ccc(-c2ccc(-c3nc4ccc(NCCOCCOc5cccc6c5CN(C5CCC(=O)NC5=O)C6=O)cc4s3)c(C(F)(F)F)c2)cn1 (centres unmarked) [Compound 185563] | – | – | > 10 µM | –
12 | Cc1ncsc1-c1ccc(CNC(=O)[C@@H]2C[C@@H](O)CN2C(=O)[C@@H](NC(=O)COCCOCCOCCOCCOCCNc2ccc3nc(-c4ccc(-c5ccc(N(C)C)nc5)cc4)sc3c2)C(C)(C)C)cc1 (racemic) [Compound 161247, rac-(2R,4S)—N-[[4-(4-methyl-1,3-thiazol-5-yl)phenyl]methyl]-4-hydroxy-1-[rac-(2R)-2-[2-[2-[2-[2-[2-[2-[[2-[4-[6-(dimethylamino)pyridin-3-yl]phenyl]-1,3-benzothiazol-6-yl]-amino]ethoxy]ethoxy]ethoxy]ethoxy]ethoxy]ethanoylamino]-3,3-dimethyl-butanoyl]pyrrolidine-2-carboxamide] | – | – | > 10 µM | –
13 | COc1ccc2nc(-c3ccc(-c4ccnc(NC(=O)CCCCOc5ccc6c(c5)CN(C5CCC(=O)NC5=O)C6=O)c4)cc3)cn2c1 (centres unmarked) [Compound 130177] | – | – | > 10 µM | –
14 | CN(C)c1ccc(-c2ccc(-c3nc4ccc(NC(=O)CCOCCOc5ccc6c(c5)CN(C5CCC(=O)NC5=O)C6=O)cc4s3)cc2)cn1 (centres unmarked) [Compound 170358] | – | – | > 10 µM | –
15 | CN(C)c1ccc(-c2ccc(-c3nc4ccc(NCCOCCN5C(=O)CCC(N6Cc7c(N)cccc7C6=O)C5=O)cc4s3)cc2)cn1 (centres unmarked) [Compound 162641, 3-(7-azanyl-3-oxidanylidene-1H-isoindol-2-yl)-1-[2-[2-[[2-[4-[6-(dimethylamino)pyridin-3-yl]phenyl]-1,3-benzothiazol-6-yl]amino]ethoxy]ethyl]piperidine-2,6-dione] | – | – | > 10 µM | –
16 | CN(C)c1ccc(-c2ccc(-c3cn4cc(OCCCCCOc5ccc6c(c5)CN(C5CCC(=O)NC5=O)C6=O)ccc4n3)cc2)c(F)n1 (centres unmarked) [Compound 170451] | – | – | > 10 µM | –
17 | O=C1CCC(N2Cc3cc(OCCOCCOc4ccc5nc(-c6ccc(-c7ccc(NC8CC8)nc7)cc6)sc5c4)ccc3C2=O)C(=O)N1 (centres unmarked) [Compound 177032] | – | 0.06 µM | > 10 µM | –
18 | Cc1ncsc1-c1ccc(CNC(=O)[C@@H]2C[C@@H](O)CN2C(=O)[C@@H](NC(=O)COCCOCCOc2ccc3nc(-c4ccc(-c5ccc(N(C)C)nc5)cc4)sc3c2)C(C)(C)C)cc1 [Compound 178884] | – | – | > 10 µM | –
19 | CN(C)c1ccc(-c2ccc(-c3nc4ccc(OCCCOc5ccc6c(c5)CN(C5CCC(=O)NC5=O)C6=O)cc4s3)cc2)cn1 (centres unmarked) [Compound 184605] | – | – | > 10 µM | –
20 | O=C1CCC(N2Cc3cc(OCCOCCNc4cc(-c5ccc(-c6cn7ccccc7n6)cc5)ccn4)ccc3C2=O)C(=O)N1 (centres unmarked) [Compound 137955] | – | – | > 10 µM | –
21 | CN(C)c1ccc(-c2ccc(-c3nc4ccc(OCCOCCOc5cccc6c5CN(C5CCC(=O)NC5=O)C6=O)cc4s3)c(C(F)(F)F)c2)cn1 (centres unmarked) [Compound 180950] | – | – | > 10 µM | –
22 | CN(C)c1ccc(-c2ccc(-c3nc4ccc(NC(=O)CCOCCOCCOc5ccc6c(c5)CN(C5CCC(=O)NC5=O)C6=O)cc4s3)c(C(F)(F)F)c2)cn1 (centres unmarked) [Compound 138266] | – | – | > 10 µM | –
23 | COc1ccc2nc(-c3ccc(-c4ccnc(NCCOCCOc5ccc6c(c5)CN(C5CCC(=O)NC5=O)C6=O)c4)cc3)oc2c1 (centres unmarked) [Compound 166123] | 0.41 µM | 0.48 µM | – | –
24 | COc1ccc2nc(-c3ccc(-c4ccnc(NC(=O)CCCOc5ccc6c(c5)CN(C5CCC(=O)NC5=O)C6=O)c4)cc3)sc2c1 (centres unmarked) [Compound 138876] | – | – | 0.9 to 10 µM | –
25 | O=C1CCC(N2Cc3cc(OCCCC(=O)Nc4cc(-c5ccc(-c6nc7ccc(F)cc7s6)cc5)ccn4)ccc3C2=O)C(=O)N1 (centres unmarked) [Compound 133678] | – | – | > 10 µM | –
26 | Cc1ncsc1-c1ccc(CNC(=O)[C@@H]2C[C@@H](O)CN2C(=O)C(NC(=O)COCCOCCNc2cc(-c3ccc(-c4nc5ccc(F)cc5s4)cc3)ccn2)C(C)(C)C)cc1 (some centres unmarked) [Compound 165810] | – | – | > 10 µM | –
27 | COc1ccc2nc(-c3ccc(-c4ccnc(NCCOCCOc5ccc6c(c5)CN(C5CCC(=O)NC5=O)C6=O)c4)cc3)cn2c1 (centres unmarked) [Compound 162640, 3-[6-[2-[2-[[4-[4-(6-methoxyimidazo[1,2-a]pyridin-2-yl)phenyl]pyridin-2-yl]amino]ethoxy]ethoxy]-3-oxidanylidene-1H-isoindol-2-yl]piperidine-2,6-dione] | – | – | 0.01 to 0.9 µM | inhibition of MJFR14 immunoreactivity (α-synuclein aggregates; [3]): concentration-dependent inhibition
28 | CN(C)c1ccc(-c2ccc(-c3nc4ccc(NCCCNC(=O)COc5ccc6c(c5)CN(C5CCC(=O)NC5=O)C6=O)cc4s3)c(C(F)(F)F)c2)cn1 (centres unmarked) [Compound 166362] | – | – | 0.9 to 10 µM | inhibition of MJFR14 immunoreactivity (α-synuclein aggregates; 6-day treatment, immunocytochemical images): clear inhibition; inhibition of MJFR14 immunoreactivity (α-synuclein aggregates; [3]): concentration-dependent inhibition
29 | CN(C)c1ccc2nc(-c3ccc(-c4ccc(NCCOCCOc5ccc6c(c5)C(=O)N(C5CCC(=O)NC5=O)C6=O)nc4)cc3)sc2c1 (centres unmarked) [Compound 161177, 2-[2,6-bis(oxo)piperidin-3-yl]-5-[2-[2-[[5-[4-[6-(dimethylamino)-1,3-benzothiazol-2-yl]phenyl]pyridin-2-yl]amino]ethoxy]ethoxy]isoindole-1,3-dione] | – | – | > 10 µM | –
30 | CN(C)c1ccc(-c2ccc(-c3nc4ccc(C(=O)OCCOCCOCCOc5ccc6c(c5)CN(C5CCC(=O)NC5=O)C6=O)cc4s3)cc2)cn1 (centres unmarked) [Compound 166124] | 0.03 µM | 0.34 µM | – | –
